Data taken from US12465050B2, “Compositions comprising a pyridine carboxylate herbicide and protoporphyrinogen oxidase (protox) inhibitor herbicides” (priority 2018, dated 2025).

Assays:
Type in all cases: in vivo
[1] = test system: Salsola kali (Russian thistle); assay: Greenhouse postemergence herbicidal effect on SASKR
Text: (§1) Greenhouse Trial Methodology—Evaluation of Postemergence Herbicidal Effect
(§2) Seeds of the desired test plant species were planted in a 90:10% v/v (volume/volume) mixture of PRO-MIX® BX (Premier Tech Horticulture, Quakertown, Pa., USA) and PROFILE® GREENS GRADE™ (Profile Products LLC, Buffalo Grove, Ill., USA) planting mixture, which typically has a pH of 5.2 to 6.2 and an organic matter content of at least 50 percent, in plastic pots with a surface area of 103.2 square centimeters (cm^2). In some aspects or embodiments, to help ensure good germination and healthy plants, a fungicide treatment and/or other chemical or physical treatment was applied. The plants were grown for 7-36 days (d) in a greenhouse with an approximate 14-hour (h) photoperiod which was maintained at about 23° C. during the day and 22° C. during the night. Nutrients and water were added on a regular basis and supplemental lighting was provided with overhead metal halide 1000-Watt lamps as necessary. The plants were employed for testing when they reached the second or third true leaf stage.
(§3) Emulsifiable concentrates of each of each pyridine carboxylate herbicide (Compound A or Compound B) were prepared at 100 grams acid equivalent per liter (g ae/L). The emulsifiable concentrates also included a safener, cloquintocet mexyl, at 120 grams active ingredient per liter (g ai/L). An aliquot of each emulsifiable concentrate was placed in a 25 mL glass vial and diluted with an aqueous mixture of 1.25% (v/v) ACTIROB® B esterified rapeseed oil (Bayer Crop Science, Research Triangle Park, N.C., USA) or MSO® Concentrate with LECI-TECH® methylated soybean oil (Loveland Products, Loveland, Colo., USA) to obtain concentrated stock solutions at the highest application rate for each herbicide, based upon a 12 milliliter (mL) application volume at a rate of 187 liters per hectare (L/ha). The concentrated stock solutions were further diluted with an aqueous mixture of 1.25% v/v ACTIROB® B or MSO® Concentrate with LECI-TECH® to obtain stock solutions at reduced application rates for each herbicide. Spray solutions of the herbicide combinations (Compound A or Compound B plus PROTOX inhibitor herbicide) were prepared by adding weighed amounts or aliquots of the PROTOX inhibitor herbicides to the stock solutions of Compound A or Compound B to form 12-mL spray solutions in two-way combinations.
(§4) The spray solutions were applied to the plant material with an overhead Mandel track sprayer equipped with 8002E nozzles calibrated to deliver 187 L/ha over an application area of 0.503 square meters (m^2) at a spray height of 18 inches (43 centimeters (cm)) above the average plant canopy. Control plants were sprayed in the same manner with the solvent blank. All pyridine carboxylate herbicide (component a) application rates are given as “g ae/ha” and all PROTOX inhibitor herbicide (component b) application rates are given as “g ai/ha.”
(§5) The treated plants and control plants were placed in a greenhouse as described above and watered by sub-irrigation to prevent wash-off of the test compounds. After 20-22 d, the condition of the test plants as compared with that of the control plants was determined visually and scored on a scale of 0 to 100 percent where 0 corresponds to no injury and 100 corresponds to complete kill.

[2] = test system: Papaver rhoeas (common poppy); assay: Greenhouse postemergence herbicidal effect on PAPRH
Text: as §1, §2
as §3, with “combinations. […]” for “combinations.”
as §5

[3] = test system: Viola arvensis (field violet); assay: Greenhouse postemergence herbicidal effect on VIOAR
Text: as §1, §2
as §3, with “combinations. […]” for “combinations.”
as §5

Zea mays (maize) = assay: Greenhouse postemergence phytotoxicity on crop ZEAMX
Text: as §1, §2
(§6) Emulsifiable concentrates of each of each pyridine carboxylate herbicide (Compound A or Compound B) were prepared at 100 grams acid equivalent per liter (g ae/L). The emulsifiable concentrates also included a safener, cloquintocet mexyl, at 120 grams active ingredient per liter (g ai/L). […]
as §5

[4] = test system: Hordeum vulgare (winter barley); assay: Greenhouse postemergence phytotoxicity on crop HORVW
Text: as §1, §2
as §3, with “combinations. […]” for “combinations.”
as §5

[5] = test system: Brassica napus (winter rape); assay: Greenhouse postemergence herbicidal effect on BRSNW
Text: as §1, §2, §3, §4, §5

[6] = test system: Stellaria media (chickweed); assay: Greenhouse postemergence herbicidal effect on STEME
Text: as §1, §2
as §3, with “combinations. […]” for “combinations.”
as §5

[7] = test system: Cirsium arvense (Canadian thistle); assay: Greenhouse postemergence herbicidal effect on CIRAR
Text: as §1, §2, §3, §4, §5

[8] = test system: Brassica napus (spring rape); assay: Greenhouse postemergence herbicidal effect on BRSNN
Text: as §1, §2, §3, §4, §5

[9] = test system: Cyanus segetum (cornflower); assay: Greenhouse postemergence herbicidal effect on CENCY
Text: as §1, §2
as §3, with “combinations. […]” for “combinations.”
as §5

[10] = test system: Abutilon theophrasti (velvetleaf); assay: Greenhouse postemergence herbicidal effect on ABUTH
Text: as §1, §2, §6, §5

[11] = test system: Setaria faberi (giant foxtail); assay: Greenhouse postemergence herbicidal effect on SETFA
Text: as §1, §2, §3, §4, §5

[12] = test system: Capsella bursa-pastoris (shepherd's purse); assay: Greenhouse postemergence herbicidal effect on CAPBP
Text: as §1, §2
as §3, with “combinations. […]” for “combinations.”
as §5

[13] = test system: Anthemis arvensis (corn chamomile); assay: Greenhouse postemergence herbicidal effect on ANTAR
Text: as §1, §2
as §3, with “combinations. […]” for “combinations.”
as §5

[14] = test system: Cyperus esculentus (nutsedge); assay: Greenhouse postemergence herbicidal effect on CYPES
Text: as §1, §2, §6, §5

[15] = test system: Lamium purpureum (purple deadnettle); assay: Greenhouse postemergence herbicidal effect on LAMPU
Text: as §1, §2
as §3, with “combinations. […]” for “combinations.”
as §5

[16] = Compound A 7.5, Oxyfluorfen 0 g/ha
[17] = Compound A 7.5, Pyraclonil 0 g/ha
[18] = Compound A 7.5, Pyraflufen-ethyl 0 g/ha
[19] = Compound A 10, Oxyfluorfen 0 g/ha
[20] = Compound A 10, Pyraclonil 0 g/ha
[21] = Compound A 10, Pyraflufen-ethyl 0 g/ha
[22] = Compound A 15, Oxyfluorfen 0 g/ha
[23] = Compound A 7.5, Saflufenacil 0 g/ha
[24] = Compound A 10, Saflufenacil 0 g/ha

SMILES: N#CCOC(=O)c1nc(-c2ccc3cc[nH]c3c2F)c(F)c(N)c1Cl [Compound A, cyanomethyl 4-amino-3-chloro-5-fluoro-6-(7-fluoro-1H-indol-6-yl)pyridine-2-carboxylate]
- % visual injury, Obs ([1]; Compound A 7.5, Carfentrazone-ethyl 0 g/ha): 45%
- % visual injury, Obs [1, 16]: 50%
- % visual injury, Obs [1, 17]: 45%
- % visual injury, Obs [1, 18]: 60%
- % visual injury, Obs ([1]; Compound A 10, Carfentrazone-ethyl 0 g/ha): 60%
- % visual injury, Obs [1, 19]: 60%
- % visual injury, Obs [1, 20]: 60%
- % visual injury, Obs [1, 21]: 63%
- % visual injury, Obs [1, 22]: 63%
- % visual injury, Obs [2, 16]: 100%
- % visual injury, Obs [2, 19]: 99%
- % visual injury, Obs [2, 22]: 100%
- % visual injury, Obs [3, 16]: 10%
- % visual injury, Obs [3, 19]: 13%
- % visual injury, Obs [3, 22]: 10%
- % visual injury, Obs (Zea mays (maize); [23]): 0%
- % visual injury, Obs (Zea mays (maize); [24]): 0%
- % visual injury, Obs [4, 16]: 0%
- % visual injury, Obs [4, 19]: 0%
- % visual injury, Obs [4, 22]: 0%
- % visual injury, Obs [5, 16]: 60%
- % visual injury, Obs [5, 18]: 35%
- % visual injury, Obs [5, 19]: 65%
- % visual injury, Obs [5, 21]: 40%
- % visual injury, Obs [5, 22]: 73%
- % visual injury, Obs [6, 16]: 85%
- % visual injury, Obs [6, 19]: 88%
- % visual injury, Obs [6, 22]: 89%
- % visual injury, Obs ([7]; Compound A 7.5, Bifenox 0 g/ha): 70%
- % visual injury, Obs [7, 16]: 50%
- % visual injury, Obs [7, 18]: 40%
- % visual injury, Obs ([7]; Compound A 10, Bifenox 0 g/ha): 68%
- % visual injury, Obs [7, 19]: 63%
- % visual injury, Obs [7, 21]: 55%
- % visual injury, Obs [7, 22]: 63%
- % visual injury, Obs ([8]; Compound A 7.5, Bifenox 0 g/ha): 23%
- % visual injury, Obs [8, 17]: 55%
- % visual injury, Obs [8, 23]: 65%
- % visual injury, Obs ([8]; Compound A 10, Bifenox 0 g/ha): 45%
- % visual injury, Obs [8, 20]: 60%
- % visual injury, Obs [8, 24]: 65%
- % visual injury, Obs [9, 16]: 75%
- % visual injury, Obs [9, 19]: 78%
- % visual injury, Obs [9, 22]: 80%
- % visual injury, Obs [10, 23]: 68%
- % visual injury, Obs [10, 24]: 80%
- % visual injury, Obs ([11]; Compound A 7.5, Bifenox 0 g/ha): 60%
- % visual injury, Obs [11, 23]: 78%
- % visual injury, Obs ([11]; Compound A 10, Bifenox 0 g/ha): 78%
- % visual injury, Obs [11, 24]: 80%
- % visual injury, Obs [12, 16]: 45%
- % visual injury, Obs [12, 19]: 55%
- % visual injury, Obs [12, 22]: 55%
- % visual injury, Obs [13, 16]: 68%
- % visual injury, Obs [13, 19]: 70%
- % visual injury, Obs [13, 22]: 88%
- % visual injury, Obs [14, 23]: 30%
- % visual injury, Obs [14, 24]: 8%
- % visual injury, Obs [15, 16]: 68%
- % visual injury, Obs [15, 19]: 73%
- % visual injury, Obs [15, 22]: 73%
